Laboratory results taken from patent US7259278B2, “Anti-S-phase tubulin ligands” (Cytoskeleton Inc., priority 2000, dated 2007).

Legend:
CEM cells [1] = test: Immunofluorescence staining of microtubule structure and apoptotic DNA analysis; format: cell-based; conditions: ID90 concentration
Experimental: FIG. 5. Interferences with the formation of microtubule structure in IAABE treated CEM cells. […] Insert is DNA extracted from the same samples run on 1% agarose gels and stained with ethidium bromide. Note absence of microtubule structure and appearance of apoptotic nuclei in IAABE treated cells. Note strong signal of apoptotic DNA ladder in IAABE treated cells compared to vinblastine and paclitaxel samples.
Immunofluorescence staining of microtubule structure. CEM cells incubated in the presence or absence of IAABE were collected and centrifuged in a Cytospin centrifuge at 700 xg for 5 min. The slides were air dried and fixed with methanol at −20° C. for 20 min. The slides were incubated in PBS containing 1% BSA at 37° C. for 30 min. After washing with PBS for 3 min, cells on the slides were covered with 30 ul of antihuman beta-tubulin monoclonal antibody (4 ug/ml; Accurate Antibody, Westbury, N.Y.) and placed in a humid chamber at 24° C. for 60 min. The slides were washed with PBS three times for 3 min each, followed by staining with 10 ul of FTTC-labeled goat anti-mouse antibody (Coulter, Hialeah, Fla.) in a humid chamber at 24° C. for 60 min. After washing in PBS, the stained cells were visualized under a fluorescence microscope (model MC63, Zeiss, Jena, Germany).
Apoptotic DNA analysis. […]

[2] = test system: lymphoma cells (Daudi/wt and Daudi/MDR); test: Cytotoxicity: cancericidal index, lymphoma cells versus normal cells; format: cell-based, human
Experimental: FIG. 9. Cytotoxicity of IAABE against different tumor cells.
Cytotoxicity assays. Cells in suspension were seeded into 96-well plates at 10^5 cells/well, and the compounds added, total well volume was 250 μl. Cells were cultured for 48 h and the viability measured by trypan blue exclusion. ID50 and ID90 values were determined by the concentration of compound required to induce cell death in 50 or 90% of cells respectively.

Prostate carcinoma = Prostate carcinoma model; format: in vivo, mice; conditions: 90 days after tumor implant
Experimental: FIG. 11. Prostate carcinoma inhibition by IAABE. • *—N,N-dimethylacetamide, propylene glycol and Tween 80 (1:2:1 v/v/v) • 1—2.5×10^6 tumor cells were injected s.c. on day 0, treatment started at day 1. • 2—TI%=Tumor growth inhibition 1 week after last treatment. • 3—TF/T=Tumor free mice at day 90 after tumor implant.

CEM cells [3] = conditions: 4 n DNA; cited from earlier work
[4] = target: mitochondrial permeability transition pore complex; conditions: read-out: Kd of interaction with a component (probably tubulin) on the mitochondrial outer membrane; cited from earlier work

| SMILES | microtubule structure by immunofluorescence (CEM cells [1]) | cancericidal index, ratio (ID50 normal cells/ID50 cancer cells) [2] | tumor free mice (Prostate carcinoma) | cell cycle phase of arrest (CEM cells [3]) | Kd [4] |
| --- | --- | --- | --- | --- | --- |
| CC[C@]1(O)C[C@@H]2CN(CCc3c([nH]c4ccccc34)[C@@](C(=O)OC)(c3cc4c(cc3OC)N(C)[C@H]3[C@@](O)(C(=O)OC)[C@H](OC(C)=O)[C@]5(CC)C=CCN6CC[C@]43[C@@H]65)C2)C1 [vinblastine] | punctuated aggregates of tubulin | 42 | no tumor free mice | G2/M phase |  |
| CC(=O)O[C@H]1C(=O)[C@@]2(C)[C@H]([C@H](OC(=O)c3ccccc3)[C@]3(O)C[C@H](OC(=O)[C@H](O)[C@@H](NC(=O)c4ccccc4)c4ccccc4)C(C)=C1C3(C)C)[C@]1(OC(C)=O)CO[C@@H]1C[C@@H]2O [paclitaxel] | dense mitotic spindle staining | 24 | no tumor free mice | G2/M phase | 5 to 20 µM |
